Legend:
[1] = tested on: lethally irradiated recipients; assay: Limiting-dilution competitive repopulating unit (CRU) assay; type: in vivo, mouse; settings: CHIR99021 versus ST media (2/0.4)
Protocol: FIGS. 27A-C show ex vivo expansion of normal, long-term repopulating HSC. MNCs containing a known quantity of LSK Flk2^− cells were cultured for 14 days with and without CHIR99021. The cultured progeny of MNCs containing a pre-culture dosage of 0.1, 0.3 or 1.0 LSK Flk2^− cells were transplanted into lethally irradiated recipients along with 1×10^5 rescue/competitor cells (n=10 for each of 6 groups). Peripheral blood was analyzed at 16 weeks post-transplant and competitive repopulating unit (CRU) frequency was determined using L-Calc software (Stem Cell Technologies, Inc.) based on Poisson statistics (Zhang, C. C. & Lodish, H. F. Murine hematopoietic stem cells change their surface phenotype during ex vivo expansion. Blood, Vol. 105, pages 4314-4320 (2005); Miller, C. L. & Eaves, C. J. Expansion in vitro of adult murine hematopoietic stem cells with transplantable lympho-myeloid reconstituting ability. Proceedings of the National Academy of Sciences of the United States of America, Vol. 94, pages 13648-13653 (1997)). […] Peripheral blood was analyzed for percent donor repopulation at 16 weeks post-1°, 2°, and 3° transplant (upper panels) and percent mature donor-derived B, T and myeloid cells (lower panels). […]

[2] = tested on: lethally irradiated recipients; assay: Serial transplantation of cultured MNCs without rescue/competitor cells; type: in vivo, mouse
Protocol: FIGS. 27A-C show ex vivo expansion of normal, long-term repopulating HSC. MNCs containing a known quantity of LSK Flk2^− cells were cultured for 14 days with and without CHIR99021. The cultured progeny of MNCs containing a pre-culture dosage of 0.1, 0.3 or 1.0 LSK Flk2^− cells were transplanted into lethally irradiated recipients along with 1×10^5 rescue/competitor cells (n=10 for each of 6 groups). Peripheral blood was analyzed at 16 weeks post-transplant and competitive repopulating unit (CRU) frequency was determined using L-Calc software (Stem Cell Technologies, Inc.) based on Poisson statistics (Zhang, C. C. & Lodish, H. F. Murine hematopoietic stem cells change their surface phenotype during ex vivo expansion. Blood, Vol. 105, pages 4314-4320 (2005); Miller, C. L. & Eaves, C. J. Expansion in vitro of adult murine hematopoietic stem cells with transplantable lympho-myeloid reconstituting ability. Proceedings of the National Academy of Sciences of the United States of America, Vol. 94, pages 13648-13653 (1997)). […] Fresh MNCs containing 5 or 500 LSK Flk2^− cells, or the progeny of MNCs containing 5 LSK Flk2^− cells cultured for 14 days with and without CHIR99021, were transplanted into lethally irradiated recipients without rescue/competitor cells. At 16-17 weeks post-transplant, bone marrow isolated from 1° recipients was transplanted into 2° recipients and, at 16-17 weeks post-secondary transplant, from 2° into 3° recipients at a dosage of 1×10^6 cells per mouse. Peripheral blood was analyzed for percent donor repopulation at 16 weeks post-1°, 2°, and 3° transplant (upper panels) and percent mature donor-derived B, T and myeloid cells (lower panels).
For competitive repopulation assays, 1×10^5 bone marrow cells congenic with the host (CD45.1^+) were included per mouse. 100 μl of cultured cells or cells freshly isolated and quantified in the same manner were transplanted into lethally irradiated (10 Grays, single dose) Protein tyrosine phosphatase, receptor type, C (Ptprc or CD45.1) recipient mice through the tail vein using an insulin syringe (29 gauge). Mice were placed on Batril® water (Bayer Healthcare, LLC, Shawnee Mission, Kans.) 3 days prior to irradiation which continued for 2 weeks post-irradiation. Repopulation was measured every 4 weeks post-transplant by collection of peripheral blood, red blood cell lysis and staining of CD45.1 (recipient) vs. CD45.2 (donor) engraftment. […] Multi-lineage reconstitution was determined by CD3, B220 (for T and B lymphoid, respectively) and Gr1, Mac-1 (for myeloid) gating on donor (CD45.2^+) cells. […] Bone marrow cells were counted and transplanted as above at a dosage of 1×10^6 per mouse. […]

[3] = tested on: LSK Flk2^− cells; assay: 10-day culture of bone marrow MNCs with PI3K inhibitor, CHIR99021 or without insulin, expansion of LSK Flk2^− cells; type: cell-based, mouse; settings: 10 days culture; 250 nM CHIR99021; NVP-BEZ235 at indicated concentrations

Structure (SMILES): Cc1c[nH]c(-c2cnc(NCCNc3ccc(C#N)cn3)nc2-c2ccc(Cl)cc2Cl)n1 [CHIR99021]
- Increase of CRU frequency [1]: 5 fold
- Dose of fresh, unexpanded cells giving equivalent long-term repopulation ([2]; 16 weeks post-secondary transplantation, 5 versus 500 putative HSCs): 100 fold
- Repopulation of tertiary recipients ([2]; 16 weeks post-tertiary transplant, versus 100× uncultured cells): equivalent levels of repopulation with no statistical difference between the two groups
- Survival of tertiary recipients ([2]; Kaplan-Meier, FIG. 27C): survival rates similar to tertiary recipients of 100× uncultured cells
- Donor reconstitution at 16 weeks post-secondary transplant ([2]; secondary lethally-irradiated recipients, 1×10^6 bone marrow cells): 90.6±4.8%
- Expansion of LSK Flk2^− cells [3]: increased the expansion
